Measured values: article PMC6270194 (Molecules, 2013)
Marks after values point to notes of the source that are not given here.

Tests used:
HIV-1 protease = biological target: T1, HIV-1 protease (Human immunodeficiency virus type 1 group M subtype B, UniProt P04585); assay: HIV-1 protease inhibition assay (fluorescent substrate); assay type: biochemical; conditions: 10 μM compounds dissolved in DMSO; read-out: % Enzyme Inhibition HIV-I protease
T1 construct: HIV-1 protease enzyme (Sigma Aldrich); purchased Sigma Aldrich
Procedure: HIV-1 protease inhibition was performed by using a previously described method. HIV protease fluorescent substrate and HIV-1 protease enzyme (Sigma Aldrich) were used to determine HIV inhibition capacity of sample. Three primary controls i.e., blank, sample and positive control were used. Reaction mixture of 200 µL comprised of five enzyme units (5U) of HIV-1 protease along with 0.5 pmol of enzyme substrate. After addition of both enzymes and substrates, test compounds were added in different concentrations. Reaction mixture was incubated at 37 °C which leads to generation of fluorescence signal by cleaving Tyr-Pro peptide bond of the substrate. Finally reaction mixture was heated for 5 minutes at 90 °C to stop the reaction. The mixture was centrifuged at 12,000 rpm for 3 min. and supernatant was used to measure the fluorescence signal. The enzyme inhibition was calculated using the Equation (1).

[1] = test system: human endothelial lung cells; assay: Cytotoxicity analysis by LDH release assay; assay type: cell-based; conditions: 10 µM, 24 hours
Procedure: In the current study authors conducted a toxicology study to confirm safety of compounds and their dosage for potential animal or clinical studies. The study was conducted at 10 µM concentration using human endothelial lung cells. […] Literature reports on cytotoxic behavior of potent natural antioxidants are rare. Research in the field of free radicals mainly deals with screening of novel antioxidants and their mechanism of action.
Human lung cell line (ATCC® PCS-100-022™) was purchased from American Type Culture Collection (Cederlane, Burlington, ON, Canada). Cell lines were maintained and grown in DMEM complete growth media, supplemented with 10% fetal bovine serum (FBS), 100 units/mL penicillin and 100 µg/mL streptomycin (Cederlane) at 37 °C, in a humidified 5% CO2 incubator. Cell growth medium was changed every 48 hours and when cells reached 80% confluence, they were detached from 75 cm^2 tissue culture flask using 0.25% trypsin-EDTA treatment. The detached cells were collected in sterile tube in FBS free media. Collected cells were then counted using the Millipore Scepter 2.0 handheld automated cell counter. Further assay specific analysis was performed as described in section 2.10.
Cytotoxicity assay was performed using Promega Cytotox 96® non-radioactive colorimetric assay (Promega Corporation). The assay measures the lactate dehydrogenase (LDH) release upon cell lysis. The released LDH from cells was measured in an enzymatic assay based on conversion of tetrazolium salt to a red formazan product. Briefly, 5,000 human endothelial lung cells in 100 µL of serum-free culture medium were seeded in 96 well sterile plates. Cells were allowed to adhere to the plates for 24 h at 37 °C in a humidified, 5% CO2 incubator. After 24 h, the serum-free media was replaced by test compounds in 100 µL of serum-free culture medium. […] The test compounds at 10 µM concentration were allowed to interact with cells for 24 hours after which absorbance were recorded at 490 nm using BMG FLUOstar OPTIMA spectrophotometer (BMG Labtech, Durham, NC). […]

[2] = test system: angiotensin converting enzyme (ACE); assay: Angiotensin converting enzyme (ACE) inhibition assay; assay type: biochemical; conditions: 10 μM compounds dissolved in DMSO
Procedure: ACE assay is based on ACE inhibitory activity of test samples. The enzyme activity was measured by production of hippuric acid from the substrate hippuryl-L-histidyl-L-leucine (HHL). ACE cleaves the substrate to expose a free N-terminus, which was fluorogenically labeled with o-phthaldialdehyde (OPA). The florescence signal was measured by using excitation of 350 nm and emission of 500 nm. ACE inhibition activity of samples was measured using the following equation: % inhibition = 100 − (Acontrol − Asample)/Acontrol × 100 (1) where A is the absorbance Equation (1).

[3] = Ferric reducing ability of plasma (FRAP) assay; conditions: 10 μM compounds dissolved in DMSO; Trolox equivalence; mean ± SD
Description: The FRAP assay uses antioxidants in a redox-linked colorimetric assay to reduce ferric tripyridyl triazine to ferrous form at low pH [20].
FRAP assay is based on ferric to ferrous ion reduction to test the electron donating capacity of antioxidants. The assay was modified by using the 96-well microplate reader with an injection port system. Briefly, the FRAP working reagent was made using acetate buffer, 2,4,6-Tris (2-pyridyl)-s-triazine solution and ferric chloride in the ratio 10:1:1. […] After 6 min reaction time, absorbance was measured at 593 nm. Trolox standards at different concentrations were used to calculate the antioxidant capacity as mmol Trolox equivalence per L.

[4] = Oxygen radical absorbance capacity (ORAC) assay; conditions: 1 μM compounds dissolved in DMSO; Trolox equivalence; mean ± SD
Procedure: ORAC assay is based on the free radical damage to a fluorescence probe measured by fluorescence intensity over the time. The fluorescein sodium salt was used as fluorescence probe and change in its intensity was estimated as the index of the degree of free radical damage. Assay was performed using method described elsewhere. Briefly, the standards and samples were prepared using 75 mM phosphate buffer (pH 7). As the peroxy radicals are generated from decomposition of 2,2'-azobis(2-amidino-propane) dihydrochloride (AAPH), the signal was quenched from fluorescein. However, in the presence of antioxidant samples the fluorescence signal can be stabilize which depends directly upon the antioxidant’s capacity to neutralize the free radical. Quadratic relation emerging from florescent area under the decaying curve was used to calculate antioxidant capacity as mmol Trolox equivalence per L.

Tyrosinase = Tyrosinase inhibition assay (L-DOPA substrate); assay type: biochemical; conditions: 10 μM compounds dissolved in DMSO
Procedure: Tyrosinase inhibition was calculated based on previously described methods using L-DOPA as the substrate. Tyrosinase inhibition depended upon the amount of dopachrome produced in the reaction mixture. Absorption was measured at 490 nm to calculate the amount of dopachrome produced. The assay was performed in 96-well clear polystyrene plates using FLUOstar OPTIMA plate reader. The tyrosinase inhibitory effect of sample was measured using the following the Equation (1).

[5] = DPPH· free radical scavenging assay; conditions: for IC50: DPPH· scavenging, 0.2 mM DPPH· in DMSO, absorbance 515 nm
Procedure: DPPH^· assay is widely used to observe radical scavenging activity of various compounds and extracts. DPPH^· is stable N radical which is reduced to hydrazine during its reaction with hydrogen donors.
Initially, 0.2 mM DPPH^· solution was prepared using DMSO as the solvent. […] During reduction of DPPH^· solution by antiradical compound, absorption of DPPH^· was measured at 515 nm. The spectrophotometric data was acquired using BMG FLUOstar OPTIMA spectrophotometer (BMG Labtech, Durham, NC, USA) and the IC50 values were calculated.

COc1ccc(/C=C/C(O)=C2\CC/C(=C\c3ccc(OC)cc3)C2=O)cc1 [Compound 3c]
inhibition at 10 µM (HIV-1 protease): 35.9%
cytotoxicity ranking (LDH release), in words [1]: highest cytotoxic behavior
% Enzyme Inhibition ACE [2]: 67.42 ^cd %
FRAP antioxidant capacity [3]: 1.09 ± 0.1 ^gh mmole TE/L
ORAC antioxidant capacity [4]: 1.17 ± 0.1 ^b mmole TE/L
% Enzyme Inhibition Tyrosinase (Tyrosinase): 58.54 ^g %
antiradical capacity lower than other series 3 analogues (fold) ([5]; DPPH assay, relative to other curcumin analogues in series 3): approximately 10 fold
IC50 [5]: 340 µM

O=C1/C(=C(O)/C=C/c2ccc(Cl)cc2)CC/C1=C\c1ccc(Cl)cc1 [Compound 3f]
inhibition at 10 µM (HIV-1 protease): 23.3%
cytotoxicity ranking (LDH release), in words [1]: lowest cytotoxicity effects
% Enzyme Inhibition ACE [2]: 75.12 ^bc %
FRAP antioxidant capacity [3]: 1.09 ± 0.1 ^gh mmole TE/L
ORAC antioxidant capacity [4]: 1.30 ± 0.02 ^b mmole TE/L
% Enzyme Inhibition Tyrosinase (Tyrosinase): 61.31 ^e %
radical scavenging capacity higher than curcumin (fold) ([5]; DPPH assay, relative to curcumin): over 10 fold
IC50 [5]: 90 µM
